Experimental data: ChEMBL document CHEMBL1268936, “Towards a systematic characterization of the antiprotozoal activity landscape of benzimidazole derivatives” (Bioorg Med Chem, 2010)

How the values were obtained:
[1] = system: Giardia intestinalis; test: Antiprotozoal activity against Giardia intestinalis; assay type: functional, organism-based; conditions: Giardia duodenalis
[2] = system: Trichomonas vaginalis; test: Antiprotozoal activity against Trichomonas vaginalis; assay type: functional, organism-based

SMILES | IC50 [1] [µM] | IC50 [2] [µM]
CCCSc1ccc2c(c1)nc(C(F)(F)F)n2C | 10.5 | 0.2
CCCSc1ccc2nc(C(F)(F)F)n(C)c2c1 | 1.41 | 2.57
Cn1c(C(F)(F)F)nc2ccc(C(=O)c3ccccc3)cc21 | 1.29 | 10.7
Cn1c(C(F)(F)F)nc2cc(C(=O)c3ccccc3)ccc21 | 1.1 | 29.5

More lines, now with the values ahead:

IC50 [1] [µM] | IC50 [2] [µM] | SMILES
0.562 | 0.302 | FC(F)(F)C(F)(F)c1nc2cc(Cl)c(Cl)cc2[nH]1
0.24 | 0.575 | O=[N+]([O-])c1cc2nc(C(F)(F)F)[nH]c2cc1[N+](=O)[O-]
0.0562 | 0.002 | FC(F)(F)c1nc2c(Br)c(Br)c(Br)c(Br)c2[nH]1
0.12 | 0.219 | FC(F)(F)c1nc2cc(Br)c(Br)cc2[nH]1
0.0229 | 10 | FC(F)(F)C(F)(F)c1nc2c(Br)c(Br)c(Br)c(Br)c2[nH]1
